Literature values, collected in patent US6909021B2, “Method of extracting lutein from green plant materials” (Alfalfa America, Inc., priority 2003, dated 2005).

Legend:
[1] = test system: age-related macular degeneration (AMD); conditions: dietary intake
[2] = water wash of green protein chloroplast fraction

| Molecule | effect on the rate of AMD [1] | solubility in water [2] |
| --- | --- | --- |
| CC1=C(/C=C/C(C)=C/C=C/C(C)=C/C=C/C=C(C)/C=C/C=C(C)/C=C/C2=C(C)CCCC2(C)C)C(C)(C)CCC1 [Beta-carotene] | not seen to have an effect | – |
| vitamin E | not seen to have an effect | – |
| vitamin A | not seen to have an effect | – |
| [Zn] [zinc] | not seen to have an effect | – |
| CC1=C[C@H](O)CC(C)(C)[C@H]1/C=C/C(C)=C/C=C/C(C)=C/C=C/C=C(C)/C=C/C=C(C)/C=C/C1=C(C)C[C@@H](O)CC1(C)C [Lutein] | – | very little solubility |
